The values below come from ChEMBL document CHEMBL5212743, “Selectivity Literature for EUbOPEN Chemogenomics Library wave 3” (2023).

Molecules are shown by their SMILES.

Assay [1] addresses Ribosomal protein S6 kinase alpha-4 (Homo sapiens) (UniProt O75676). Kind of assay: Selectivity interaction (Enzyme panel (kinases, GPCRs, ion channels, transporters)) EUB0000197b RPS6KA4. The settings on record: at 10 µM.
The target of assay [2] is T1, 5-hydroxytryptamine receptor 2B (Homo sapiens, UniProt P41595). Kind of assay: (§1) Selectivity interaction (Enzyme panel (kinases, GPCRs, ion channels, transporters)) EUB0000197b HTR2B. Conditions: at 10 µM.
T1 sequence (P41595 whole entry): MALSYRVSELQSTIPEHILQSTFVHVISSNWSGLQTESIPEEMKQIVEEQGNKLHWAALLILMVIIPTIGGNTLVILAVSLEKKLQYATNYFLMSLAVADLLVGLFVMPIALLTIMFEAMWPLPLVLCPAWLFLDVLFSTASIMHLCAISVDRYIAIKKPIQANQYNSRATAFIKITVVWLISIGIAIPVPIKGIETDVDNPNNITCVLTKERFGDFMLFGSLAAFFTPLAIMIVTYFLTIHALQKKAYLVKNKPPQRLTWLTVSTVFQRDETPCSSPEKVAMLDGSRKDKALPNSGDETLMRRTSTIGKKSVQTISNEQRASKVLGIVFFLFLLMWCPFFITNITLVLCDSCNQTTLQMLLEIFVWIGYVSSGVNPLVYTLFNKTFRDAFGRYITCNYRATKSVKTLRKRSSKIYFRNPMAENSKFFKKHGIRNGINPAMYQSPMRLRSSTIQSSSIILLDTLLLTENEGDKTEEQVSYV
Assay [3] has as its target cGMP-dependent protein kinase 2 (Homo sapiens) (UniProt Q13237). Put plainly: Selectivity interaction (Enzyme panel (kinases, GPCRs, ion channels, transporters)) EUB0000197b PRKG2. Conditions: at 10 µM.
The target in assay [4] is T1, 5-hydroxytryptamine receptor 2B. The assay is described as §1.
Assay [5] deals with Mitogen-activated protein kinase kinase kinase 12 (Homo sapiens) (UniProt Q12852). Put plainly: Selectivity interaction (Enzyme panel (kinases, GPCRs, ion channels, transporters)) EUB0000197b DLK1. The settings on record: at 10 µM.
Chain of Mitogen-activated protein kinase kinase kinase 12 (Homo sapiens) (Q12852 whole entry, looked up): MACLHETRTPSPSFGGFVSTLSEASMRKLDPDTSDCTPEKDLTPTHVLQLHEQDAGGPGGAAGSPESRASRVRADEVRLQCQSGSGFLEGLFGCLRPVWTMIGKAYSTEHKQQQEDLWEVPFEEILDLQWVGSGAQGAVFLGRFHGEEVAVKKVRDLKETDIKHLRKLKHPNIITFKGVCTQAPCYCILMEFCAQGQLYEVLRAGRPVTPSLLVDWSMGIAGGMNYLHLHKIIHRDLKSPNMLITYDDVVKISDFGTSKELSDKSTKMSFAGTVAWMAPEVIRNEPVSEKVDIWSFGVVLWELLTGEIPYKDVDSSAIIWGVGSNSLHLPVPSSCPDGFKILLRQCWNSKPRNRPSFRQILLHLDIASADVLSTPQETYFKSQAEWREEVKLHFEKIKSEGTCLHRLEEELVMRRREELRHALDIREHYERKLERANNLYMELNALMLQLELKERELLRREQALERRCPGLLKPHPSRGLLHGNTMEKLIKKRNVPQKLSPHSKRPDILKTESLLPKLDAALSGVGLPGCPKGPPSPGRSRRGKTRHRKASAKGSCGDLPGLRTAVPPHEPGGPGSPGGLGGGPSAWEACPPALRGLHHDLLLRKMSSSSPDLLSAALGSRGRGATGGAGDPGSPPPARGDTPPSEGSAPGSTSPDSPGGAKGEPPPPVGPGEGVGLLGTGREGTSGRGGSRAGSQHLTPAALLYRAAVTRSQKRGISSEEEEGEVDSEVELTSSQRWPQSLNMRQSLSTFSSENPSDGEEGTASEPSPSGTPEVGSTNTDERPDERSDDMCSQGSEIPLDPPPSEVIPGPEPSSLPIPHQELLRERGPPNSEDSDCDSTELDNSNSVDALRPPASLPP
For assay [6], the target named is Protein N-lysine methyltransferase METTL21A (Homo sapiens) (UniProt Q8WXB1). Kind of assay: Selectivity interaction (Methyltransferase panel) EUB0000197b METTL21A.
Assay [7] concerns the target Serine/threonine-protein kinase BRSK1 (Homo sapiens) (UniProt Q8TDC3). Put plainly: Selectivity interaction (Enzyme panel (kinases, GPCRs, ion channels, transporters)) EUB0000197b BRSK1. The settings on record: at 10 µM.
Assay [8] deals with cAMP-dependent protein kinase catalytic subunit PRKX (Homo sapiens) (UniProt P51817). Put plainly: Selectivity interaction (Enzyme panel (kinases, GPCRs, ion channels, transporters)) EUB0000197b PRKX. The settings on record: at 10 µM.
Chain of cAMP-dependent protein kinase catalytic subunit PRKX (Homo sapiens) (P51817 whole entry): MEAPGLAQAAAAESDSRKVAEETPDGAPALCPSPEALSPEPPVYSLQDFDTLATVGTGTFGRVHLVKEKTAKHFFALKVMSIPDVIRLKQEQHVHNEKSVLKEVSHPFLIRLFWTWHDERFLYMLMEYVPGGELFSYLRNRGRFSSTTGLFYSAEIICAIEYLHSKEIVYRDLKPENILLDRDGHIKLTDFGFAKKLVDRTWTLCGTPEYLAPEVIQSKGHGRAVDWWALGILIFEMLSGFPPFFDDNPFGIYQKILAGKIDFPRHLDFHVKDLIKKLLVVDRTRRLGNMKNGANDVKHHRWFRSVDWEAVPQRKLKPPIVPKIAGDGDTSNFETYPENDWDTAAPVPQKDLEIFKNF
For assay [9], the target named is Protein arginine N-methyltransferase 5 (Homo sapiens, UniProt O14744). Kind of assay: Selectivity interaction (Methyltransferase panel (radioactive enzyme assay)) EUB0000216b PRMT5.
For assay [10], the target named is Histone-lysine N-methyltransferase SUV39H2 (Homo sapiens, UniProt Q9H5I1). Put plainly: Selectivity interaction (Methyltransferase panel (radioactive enzyme assay)) EUB0000216b SUV39H2.
Assay [11] addresses Histone-lysine N-methyltransferase KMT5C (Homo sapiens, UniProt Q86Y97). Kind of assay: Selectivity interaction (Methyltransferase panel (radioactive enzyme assay)) EUB0000216b SUV420H2.
In assay [12] the target is T2, Histone-lysine N-methyltransferase SETD7 (Homo sapiens, UniProt Q8WTS6).
T2 sequence (Q8WTS6 whole entry): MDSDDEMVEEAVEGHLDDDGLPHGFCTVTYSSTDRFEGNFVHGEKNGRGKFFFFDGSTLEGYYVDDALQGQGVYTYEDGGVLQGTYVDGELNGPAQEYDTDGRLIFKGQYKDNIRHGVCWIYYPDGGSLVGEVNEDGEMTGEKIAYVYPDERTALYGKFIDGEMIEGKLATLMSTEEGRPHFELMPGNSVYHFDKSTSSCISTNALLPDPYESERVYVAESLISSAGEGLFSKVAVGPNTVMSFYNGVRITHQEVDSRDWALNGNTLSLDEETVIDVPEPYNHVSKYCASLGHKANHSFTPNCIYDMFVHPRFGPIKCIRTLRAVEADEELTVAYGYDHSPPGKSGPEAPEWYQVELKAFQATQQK
Put plainly: Selectivity interaction (Methyltransferase panel (radioactive enzyme assay)) EUB0000216b SETD7.

The target in assay [13] is T3, N-lysine methyltransferase KMT5A (Homo sapiens, UniProt Q9NQR1).
T3 sequence (Q9NQR1 whole entry): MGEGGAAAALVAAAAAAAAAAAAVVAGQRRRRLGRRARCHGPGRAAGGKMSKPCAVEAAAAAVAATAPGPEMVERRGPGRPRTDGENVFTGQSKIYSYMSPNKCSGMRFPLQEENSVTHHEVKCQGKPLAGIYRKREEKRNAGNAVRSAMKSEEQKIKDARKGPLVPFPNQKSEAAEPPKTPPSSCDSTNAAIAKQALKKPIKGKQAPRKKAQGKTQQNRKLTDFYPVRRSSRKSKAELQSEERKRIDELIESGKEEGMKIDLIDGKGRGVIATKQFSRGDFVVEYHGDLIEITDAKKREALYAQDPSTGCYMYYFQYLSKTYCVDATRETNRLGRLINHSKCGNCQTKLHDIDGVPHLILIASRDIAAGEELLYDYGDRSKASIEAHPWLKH
Kind of assay: Selectivity interaction (Methyltransferase panel (radioactive enzyme assay)) EUB0000216b SETD8.

In assay [14] the target is Protein arginine N-methyltransferase 3 (Homo sapiens, UniProt O60678). Put plainly: Selectivity interaction (Methyltransferase panel (radioactive enzyme assay)) EUB0000216b PRMT3.
For assay [15], the target named is Histone-lysine N-methyltransferase SETDB1 (Homo sapiens, UniProt Q15047). Kind of assay: Selectivity interaction (Methyltransferase panel (radioactive enzyme assay)) EUB0000216b SETDB1.
The target of assay [16] is Histone-lysine N-methyltransferase EHMT2 (Homo sapiens, UniProt Q96KQ7). Put plainly: Selectivity interaction (Methyltransferase panel (radioactive enzyme assay)) EUB0000216b EHMT2.
Assay [17] addresses Histone-lysine N-methyltransferase EHMT1 (Homo sapiens, UniProt Q9H9B1). Kind of assay: Selectivity interaction (Methyltransferase panel (radioactive enzyme assay)) EUB0000216b EHMT1.
For assay [18], the target named is T4, Alpha-1A adrenergic receptor (Homo sapiens) (UniProt P35348).
T4 sequence (whole entry): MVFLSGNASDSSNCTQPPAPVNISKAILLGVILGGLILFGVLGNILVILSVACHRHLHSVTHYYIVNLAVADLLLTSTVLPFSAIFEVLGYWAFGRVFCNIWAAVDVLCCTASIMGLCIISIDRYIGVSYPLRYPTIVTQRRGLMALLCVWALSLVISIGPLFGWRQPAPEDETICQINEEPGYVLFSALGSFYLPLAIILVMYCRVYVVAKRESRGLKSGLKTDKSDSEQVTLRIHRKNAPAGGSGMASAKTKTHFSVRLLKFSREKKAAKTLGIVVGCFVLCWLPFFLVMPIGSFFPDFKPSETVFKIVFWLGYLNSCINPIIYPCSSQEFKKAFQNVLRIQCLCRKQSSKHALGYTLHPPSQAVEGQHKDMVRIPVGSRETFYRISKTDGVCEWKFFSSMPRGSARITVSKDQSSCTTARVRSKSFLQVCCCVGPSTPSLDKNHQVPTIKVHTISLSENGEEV
Put plainly: Selectivity interaction (Receptor panel (Ricerca)) EUB0000216b ADRA1A. The settings on record: at 1 µM.

Assay [19] addresses Histone-lysine N-methyltransferase 2A (Homo sapiens, UniProt Q03164). Put plainly: Selectivity interaction (Methyltransferase panel (radioactive enzyme assay)) EUB0000216b MLL.
The target in assay [20] is Histone-lysine N-methyltransferase EZH2 (Homo sapiens, UniProt Q15910). Kind of assay: Selectivity interaction (Methyltransferase panel (radioactive enzyme assay)) EUB0000216b EZH2.
Chain of Histone-lysine N-methyltransferase EZH2 (Q15910 whole entry): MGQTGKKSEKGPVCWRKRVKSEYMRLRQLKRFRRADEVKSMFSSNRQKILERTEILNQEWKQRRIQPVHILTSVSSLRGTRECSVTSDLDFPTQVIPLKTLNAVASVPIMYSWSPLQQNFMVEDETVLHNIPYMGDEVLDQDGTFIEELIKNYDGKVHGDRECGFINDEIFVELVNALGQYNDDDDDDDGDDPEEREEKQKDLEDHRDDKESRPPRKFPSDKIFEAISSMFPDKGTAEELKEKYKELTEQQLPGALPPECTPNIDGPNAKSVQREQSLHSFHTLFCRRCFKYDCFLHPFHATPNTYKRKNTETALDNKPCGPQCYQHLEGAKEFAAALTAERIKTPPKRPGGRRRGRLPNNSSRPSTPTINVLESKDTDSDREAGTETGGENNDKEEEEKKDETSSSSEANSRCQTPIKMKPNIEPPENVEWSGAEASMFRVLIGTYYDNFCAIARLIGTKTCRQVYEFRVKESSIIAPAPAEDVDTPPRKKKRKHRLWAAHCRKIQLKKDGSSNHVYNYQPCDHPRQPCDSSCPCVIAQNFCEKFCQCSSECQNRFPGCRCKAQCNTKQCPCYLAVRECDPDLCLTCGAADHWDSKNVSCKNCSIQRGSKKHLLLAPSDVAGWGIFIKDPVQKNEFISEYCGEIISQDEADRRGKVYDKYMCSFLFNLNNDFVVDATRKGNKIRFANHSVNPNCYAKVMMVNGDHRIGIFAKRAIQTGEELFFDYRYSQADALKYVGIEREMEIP
Assay [21] addresses T5, Sodium/nucleoside cotransporter 2 (Homo sapiens, UniProt O43868).
T5 sequence (O43868 whole entry): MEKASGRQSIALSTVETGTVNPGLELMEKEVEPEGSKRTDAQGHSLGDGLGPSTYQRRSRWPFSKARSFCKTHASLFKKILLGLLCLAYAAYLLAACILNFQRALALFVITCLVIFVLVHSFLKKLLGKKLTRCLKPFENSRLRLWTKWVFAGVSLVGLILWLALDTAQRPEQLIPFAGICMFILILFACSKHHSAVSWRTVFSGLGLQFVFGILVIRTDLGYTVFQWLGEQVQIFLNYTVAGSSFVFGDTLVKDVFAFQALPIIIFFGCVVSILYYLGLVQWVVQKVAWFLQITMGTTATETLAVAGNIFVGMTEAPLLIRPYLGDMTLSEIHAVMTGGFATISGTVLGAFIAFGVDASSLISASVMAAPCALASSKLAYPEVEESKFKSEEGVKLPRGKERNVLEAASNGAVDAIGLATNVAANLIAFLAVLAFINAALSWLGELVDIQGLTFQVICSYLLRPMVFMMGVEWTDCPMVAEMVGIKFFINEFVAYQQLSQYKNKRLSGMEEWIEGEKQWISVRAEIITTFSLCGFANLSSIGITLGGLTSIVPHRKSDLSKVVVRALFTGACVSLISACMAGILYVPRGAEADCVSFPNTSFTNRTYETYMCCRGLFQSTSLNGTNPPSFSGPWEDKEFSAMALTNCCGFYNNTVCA
Kind of assay: Selectivity interaction (Enzyme panel (Eurofins-Panlabs radioligand binding assays)) EUB0000751a SLC28A2.

For assay [22], the target named is cGMP-inhibited 3',5'-cyclic phosphodiesterase 3A (Homo sapiens, UniProt Q14432). Put plainly: Selectivity interaction (PDE panel (enzymatic activity assay)) EUB0000751a PDE3A.
Chain of cGMP-inhibited 3',5'-cyclic phosphodiesterase 3A (Q14432 whole entry): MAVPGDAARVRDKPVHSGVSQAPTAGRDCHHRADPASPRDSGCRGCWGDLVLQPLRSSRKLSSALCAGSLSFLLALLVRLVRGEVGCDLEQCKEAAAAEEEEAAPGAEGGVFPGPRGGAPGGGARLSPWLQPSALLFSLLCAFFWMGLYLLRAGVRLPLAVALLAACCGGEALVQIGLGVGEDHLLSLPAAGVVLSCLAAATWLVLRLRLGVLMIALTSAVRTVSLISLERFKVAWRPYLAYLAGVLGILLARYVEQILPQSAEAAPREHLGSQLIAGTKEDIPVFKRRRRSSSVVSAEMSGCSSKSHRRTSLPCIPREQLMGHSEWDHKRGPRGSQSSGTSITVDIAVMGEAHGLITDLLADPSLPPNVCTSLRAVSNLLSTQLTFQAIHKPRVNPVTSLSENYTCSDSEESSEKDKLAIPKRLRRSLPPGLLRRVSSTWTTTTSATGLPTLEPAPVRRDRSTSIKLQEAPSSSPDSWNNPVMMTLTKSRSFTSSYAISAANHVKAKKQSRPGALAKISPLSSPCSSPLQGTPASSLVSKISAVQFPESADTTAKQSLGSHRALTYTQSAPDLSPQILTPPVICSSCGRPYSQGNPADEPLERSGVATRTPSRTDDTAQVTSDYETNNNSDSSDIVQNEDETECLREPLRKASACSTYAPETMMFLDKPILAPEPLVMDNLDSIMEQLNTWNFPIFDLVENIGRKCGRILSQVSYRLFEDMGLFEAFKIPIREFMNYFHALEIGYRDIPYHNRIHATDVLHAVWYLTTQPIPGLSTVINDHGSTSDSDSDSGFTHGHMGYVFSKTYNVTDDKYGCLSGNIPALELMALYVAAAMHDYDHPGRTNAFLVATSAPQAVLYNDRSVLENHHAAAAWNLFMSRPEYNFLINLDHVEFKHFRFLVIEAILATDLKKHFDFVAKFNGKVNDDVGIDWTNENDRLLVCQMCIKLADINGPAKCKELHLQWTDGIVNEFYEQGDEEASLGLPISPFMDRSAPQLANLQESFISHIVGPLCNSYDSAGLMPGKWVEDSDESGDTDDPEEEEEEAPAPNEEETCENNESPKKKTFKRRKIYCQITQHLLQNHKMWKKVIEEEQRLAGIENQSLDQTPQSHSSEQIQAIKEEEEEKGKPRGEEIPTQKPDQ
In assay [23] the target is T5, Sodium/nucleoside cotransporter 2. Put plainly: Selectivity interaction (Enzyme panel (Eurofins-Panlabs enzyme assay)) EUB0000751a SLC28A2.
For assay [24], the target named is High affinity 3',5'-cyclic-AMP phosphodiesterase 7A (Homo sapiens, UniProt Q13946). Put plainly: Selectivity interaction (PDE panel (enzymatic activity assay)) EUB0000751a PDE7A.
Chain of High affinity 3',5'-cyclic-AMP phosphodiesterase 7A (Q13946 whole entry): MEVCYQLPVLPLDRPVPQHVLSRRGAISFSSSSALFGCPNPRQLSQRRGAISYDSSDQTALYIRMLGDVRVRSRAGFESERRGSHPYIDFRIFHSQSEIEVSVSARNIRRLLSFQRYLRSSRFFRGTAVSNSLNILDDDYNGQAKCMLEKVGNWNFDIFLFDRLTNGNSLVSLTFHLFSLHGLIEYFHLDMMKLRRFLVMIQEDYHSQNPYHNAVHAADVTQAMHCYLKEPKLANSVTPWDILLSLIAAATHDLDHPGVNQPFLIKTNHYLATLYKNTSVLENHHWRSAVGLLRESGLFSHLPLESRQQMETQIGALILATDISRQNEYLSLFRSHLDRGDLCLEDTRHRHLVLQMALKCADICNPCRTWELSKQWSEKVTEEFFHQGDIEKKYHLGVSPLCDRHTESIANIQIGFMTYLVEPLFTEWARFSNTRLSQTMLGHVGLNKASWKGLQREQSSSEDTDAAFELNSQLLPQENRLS
Assay [25] deals with RAC-gamma serine/threonine-protein kinase (Homo sapiens) (UniProt Q9Y243). Kind of assay: Selectivity interaction (KinomeScan (DiscoverX)) EUB0000751a AKT3. The settings on record: at 100 nM.
Assay [26] has as its target T1, 5-hydroxytryptamine receptor 2B. Put plainly: Selectivity interaction (Lead profiling screen (Eurofins-Panlabs)) EUB0000720a HTR2B. The settings on record: at 10 µM.
The target of assay [27] is T6, Gamma-aminobutyric acid receptor subunit alpha-1 (Homo sapiens, UniProt P14867).
T6 sequence (P14867 whole entry): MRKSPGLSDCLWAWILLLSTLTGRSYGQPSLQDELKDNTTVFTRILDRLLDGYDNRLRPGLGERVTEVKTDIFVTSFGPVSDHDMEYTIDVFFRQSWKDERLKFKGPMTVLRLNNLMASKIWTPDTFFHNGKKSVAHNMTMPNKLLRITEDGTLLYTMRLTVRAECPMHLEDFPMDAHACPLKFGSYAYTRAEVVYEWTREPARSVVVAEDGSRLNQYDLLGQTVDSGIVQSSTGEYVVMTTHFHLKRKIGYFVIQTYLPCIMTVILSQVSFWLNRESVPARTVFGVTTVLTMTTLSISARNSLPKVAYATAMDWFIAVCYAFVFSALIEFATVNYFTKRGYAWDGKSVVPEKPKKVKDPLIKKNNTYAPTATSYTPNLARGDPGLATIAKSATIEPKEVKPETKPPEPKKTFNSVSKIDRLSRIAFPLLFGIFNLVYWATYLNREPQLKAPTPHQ
Kind of assay: Selectivity interaction (GPCR panel (PDSP screen)) EUB0000720a GABRA1.

In another assay the target is Activin receptor type-1 (Homo sapiens, UniProt Q04771). Put plainly: Selectivity interaction (KinomeScan (DiscoverX, competition-binding assay)) EUB0000207b ACVR1.
The target in assay [28] is T6, Gamma-aminobutyric acid receptor subunit alpha-1. Put plainly: Selectivity interaction (GPCR panel (PDSP screen)) EUB0000719a GABRA1.

Chain of Serine/threonine-protein kinase BRSK1 (Homo sapiens) (Q8TDC3 whole entry): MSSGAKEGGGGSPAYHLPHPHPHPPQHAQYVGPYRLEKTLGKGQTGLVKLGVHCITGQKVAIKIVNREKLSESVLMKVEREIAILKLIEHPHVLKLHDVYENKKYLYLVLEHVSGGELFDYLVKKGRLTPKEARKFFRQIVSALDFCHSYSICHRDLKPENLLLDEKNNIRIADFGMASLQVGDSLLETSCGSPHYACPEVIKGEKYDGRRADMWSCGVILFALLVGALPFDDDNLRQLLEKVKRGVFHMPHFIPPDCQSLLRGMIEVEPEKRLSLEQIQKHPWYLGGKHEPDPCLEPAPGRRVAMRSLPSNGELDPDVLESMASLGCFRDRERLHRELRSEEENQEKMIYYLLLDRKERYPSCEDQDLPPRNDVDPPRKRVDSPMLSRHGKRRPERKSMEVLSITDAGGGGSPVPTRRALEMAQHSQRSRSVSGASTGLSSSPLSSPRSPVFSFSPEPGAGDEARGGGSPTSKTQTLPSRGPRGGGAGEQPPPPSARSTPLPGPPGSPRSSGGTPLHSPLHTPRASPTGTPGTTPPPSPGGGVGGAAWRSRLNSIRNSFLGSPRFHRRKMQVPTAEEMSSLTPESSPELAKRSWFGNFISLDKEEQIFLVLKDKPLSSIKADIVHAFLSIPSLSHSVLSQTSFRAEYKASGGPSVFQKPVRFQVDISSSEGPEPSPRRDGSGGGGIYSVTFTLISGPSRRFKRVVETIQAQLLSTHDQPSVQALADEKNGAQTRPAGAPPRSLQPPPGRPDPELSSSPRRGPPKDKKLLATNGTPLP

For `O=C(NCC(=O)N1CCCC1)Nc1ccc2cnccc2c1`, the % of control was found to be 55% in assay [1]; 69% in [2]; 58% in assay [3]; 60% in assay [5]; 60% in assay [6]; 56% in assay [7]. In assay [8], this molecule had a % of control of 61%. Besides, the Ki (in general, a dissociation constant, usually derived from enzyme kinetics or from competition with a known ligand) in assay [4] is over 15 µM.
As to `CC(C)N(CCCNC(=O)Nc1ccc(C(C)(C)C)cc1)C[C@H]1O[C@@H](n2cc(Br)c3c(N)ncnc32)[C@H](O)[C@@H]1O`, the concentration for half-maximal inhibition (IC50) in assay [9], in assay [10], in assay [11], in assay [12], in assay [13] and in [14] was over 100 µM throughout. Further, the IC50 in assay [15], in assay [16], in [17], in assay [19] and in assay [20] was over 100 µM in each case. The % of inhibition in assay [18] worked out at 22%.
As to `COCCOc1nc(-c2ccc(Cl)nc2)nc2c1CN(C(=O)c1ncn3ccccc13)CC2` [THPP-1], the IC50 in assay [21] and in [23] was 1.61 µM in each case. Besides, the Ki is over 3300 µM in assay [22] and over 11.2 µM in assay [24]. In assay [25], this molecule showed a % of control of 47%.
`CN1C(=O)[C@@H](N2CCc3c(nn(Cc4ccccc4)c3Br)C2=O)COc2ccccc21` [TP-030-2] had a % of control in assay [26] of 63%. The molecule further gave a Ki in [27] of 0.347 µM.
In the case of `COc1cc(Nc2ccnc3ccc(Br)cc23)cc(OC)c1OC`, the dissociation constant (Kd) (commonly a measure of binding affinity in units of concentration) at Activin receptor type-1 was determined as 0.98 µM.
Consider `CN1C(=O)[C@@H](N2CCc3cn(Cc4ccccc4)nc3C2=O)COc2ccccc21` [TP-030-1], for which, in assay [28], the affinity, expressed as Ki, was 0.375 µM. In other words, the sub-micromolar range.
